The text below walks through data of patent publication US9315811B2, “Methods for modulating kallikrein (KLKB1) expression” (Ionis Pharmaceuticals, Inc., priority 2011, dated 2016).

By % inhibition is commonly meant how much of the control response was suppressed. Lower therefore signals a response near the control.

Oligonucleotides are written 5' to 3', each unit as a sugar letter and its base; * is a phosphorothioate linkage, no mark a phosphodiester; rarer units and linkages stand in square brackets, end groups in braces. Plain capitals give the bases only. e = 2'-O-(2-methoxyethyl) (MOE); [5mC] = 5-methylcytosine; d = 2'-deoxy (DNA)

The subject of series [1] is Kallikrein mRNA. Nature of the series: Liver RT-PCR analysis of kallikrein mRNA (Example 9). As to conditions: for Percent inhibition of kallikrein mRNA expression compared to the untreated PBS control: all groups ISIS 461756 12.5 mg/kg twice a week, ASO 40 mg/kg or PBS s.c. twice a week 3 weeks. Type of series: in vivo, mouse. As to the method: (§1) One group of 8 mice was treated with 40 mg/kg ISIS 482584 administered subcutaneously twice a week for 3 weeks (weekly dose of 80 mg/kg). A second group of 8 mice was treated with 40 mg/kg of the control oligonucleotide, ISIS 141923, administered subcutaneously twice a week for 3 weeks (weekly dose of 80 mg/kg). A third group of 8 mice was treated with PBS administered subcutaneously twice a week for 3 weeks. On day 14, all the groups were treated with 12.5 mg/kg ISIS 461756 administered subcutaneously twice a week for 3 weeks (weekly dose of 25 mg/kg). A control group of mice was treated with PBS administered subcutaneously twice a week for 3 weeks but was not administered ISIS 461756.
(§2) At the end of the treatment period, all the groups were injected with 30 mg/kg of Evans Blue solution into the tail vein. The mice were sacrificed 30 min after the Evans Blue solution administration and colons, feet, ears, and intestines were harvested. The liver was also harvested for RNA analysis.
RNA was isolated from the liver for RT-PCR analysis of C1-INH and kallikrein mRNAs. The primer probe set for C1-INH is RTS3218 (forward sequence […], designated herein as SEQ ID NO: 24; reverse sequence […], designated herein as SEQ ID NO: 25; probe sequence […], designated herein as SEQ ID NO: 26). The primer probe set for kallikrein is RTS3287 (forward sequence […], designated herein as SEQ ID NO: 27; reverse sequence […], designated herein as SEQ ID NO: 28; probe sequence […], designated herein as SEQ ID NO: 29). The results are presented in Table 20 as percent inhibition compared to the PBS control not treated with ISIS 461756.

In another series the test system is C1-INH mRNA. Nature of the series: Liver RT-PCR analysis of C1-INH mRNA (Example 9). Type of series: in vivo, mouse. As to the method:
as §1, §2
RNA was isolated from the liver for RT-PCR analysis of C1-INH and kallikrein mRNAs. The primer probe set for C1-INH is RTS3218 (forward sequence […], designated herein as SEQ ID NO: 24; reverse sequence […], designated herein as SEQ ID NO: 25; probe sequence […], designated herein as SEQ ID NO: 26). […]

The test system of series [2] is high molecular weight kininogen (HMWK). Nature of the series: Western blot quantification of HMWK and HMWK cleavage product by densitometer (Example 5). Format: in vivo, mouse. The note with it: vs PBS control, dose-dependent. As to the method: All the groups were then injected with 30 mg/kg of Evans Blue solution in the tail vein. The mice were sacrificed 30 min after the Evans Blue solution administration and colons, feet, and ears were harvested and examined for permeability defects. Blood samples were taken through cardiac puncture.
Treatment with kallikrein antisense oligonucleotide results in stabilization of HMWK. Thus, vascular permeability is reduced in ISIS 482584-treated groups in a dose-dependent manner. […] Thus, reduced HMWK is caused by kallikrein cleavage of HMWK into cleavage products (including bradykinin and HKa). Data are presented in Intensity Units as measured by densitometer.

The next series has as its system mouse kallikrein mRNA. Nature of the series: Antisense inhibition of murine kallikrein mRNA in mouse primary hepatocytes (Example 1). Type of series: cell-based. The procedure: Antisense oligonucleotides targeting a murine kallikrein nucleic acid were tested for their effects on kallikrein mRNA in vitro. Cultured mouse primary hepatocytes at a density of 10,000 cells per well were transfected using Cytofectin reagent with 12.5 nM, 25 nM, 50 nM, 100 nM, or 200 nM of antisense oligonucleotide. After a treatment period of approximately 24 hours, RNA was isolated from the cells and mouse kallikrein mRNA levels were measured by quantitative real-time PCR using the murine primer probe set RTS3313 (forward sequence […], designated herein as SEQ ID NO: 21; reverse sequence […], designated herein as SEQ ID NO: 22; probe sequence […], designated herein as SEQ ID NO: 23). Kallikrein mRNA levels were adjusted according to total RNA content, as measured by RIBOGREEN.
The chimeric antisense oligonucleotides were designed as 5-10-5 MOE gapmers. The gapmers are 20 nucleotides in length, wherein the central gap segment is comprised of ten 2′-deoxynucleosides and is flanked on both sides (in the 5′ and 3′ directions) by wings comprising five nucleosides each. Each nucleoside in the 5′ wing segment and each nucleoside in the 3′ wing segment has a 2′-MOE modification. The internucleoside linkages throughout each gapmer are phosphorothioate (P═S) linkages. All cytosine residues throughout each gapmer are 5-methylcytosines.
ISIS 482584 ([…]; incorporated herein as SEQ ID NO: 40), which was one of the antisense oligonucleotides tested in the assay, is targeted to SEQ ID NO: 11 (GENBANK Accession No. NM_008455.2) with a target start site of 1586 and a target stop site of 1605.

In series [3] the test system is Kallikrein mRNA. Kind of series: Kallikrein mRNA and protein expression in mice after subcutaneous ASO (Example 1). Format: in vivo, mouse. As to conditions: 3 weeks. As to the method:
C57BL/6J-Tyrc-2J mice were treated with 2.5 mg/kg, 5.0 mg.kg, 10.0 mg/kg, 20.0 mg/kg, 40.0 mg/kg, or 80.0 mg/kg (corresponding to 5.0 mg/kg, 10.0 mg/kg, 20.0 mg/kg, 40 mg/kg, 80 mg/kg, or 160 mg/kg per week) of ISIS 482584 administered subcutaneously twice a week for 3 weeks. […] Kallikrein mRNA was reduced by greater than 90% inhibition at a dose of 160 mg/kg per week.

For a further series, the system named is mice. Nature of the series: Evans Blue vascular permeability induced by ISIS 461756 (Example 9). As to conditions: mouse, in vivo. As to the method: Vascular permeability induced by ISIS 461756, an antisense oligonucleotide which targets murine C1 inhibitor mRNA, increases vascular permeability in mice and replicates the pathology of hereditary angioedema. The effect of ISIS 482584 on this model was evaluated.
as §1
At the end of the treatment period, all the groups were injected with 30 mg/kg of Evans Blue solution into the tail vein. […]
The harvested tissues from the feet, colon, and intestines were placed in formamide solution overnight to leach out the Evans Blue dye. […] The color intensity of the dye-infused formamide solution was then measured at OD600nm. […]

As for “ISIS 141923: control oligonucleotide, a 5-10-5 MOE gapmer with no known murine target; CCTTCCCTGAAGGTTCCTCC (SEQ ID NO: 42) (sugars from the 5' end e5 d10 e5, backbone and methylation of C not given here) [reference compound]”, in the series with Kallikrein mRNA [1], the “Percent inhibition of kallikrein mRNA expression compared to the untreated PBS control” value (“Percent inhibition” for short) is given as 0%.

As for “ISIS 461756: 5-10-5 MOE gapmer antisense oligonucleotide which targets murine C1 inhibitor mRNA; AAAGTGGTTGATACCCTGGG (SEQ ID NO: 41) (sugars from the 5' end e5 d10 e5, backbone and methylation of C not given here) [reference compound]”, in the series with Kallikrein mRNA [1], the “Percent inhibition” value is 0%. Moreover, the “C1-INH mRNA expression” value in the series with C1-INH mRNA is recorded as “significantly reduced”.

On to “ISIS 482584: 5-10-5 MOE gapmer antisense oligonucleotide targeting murine kallikrein; GGCATATTGGTTTTTGGAAT (SEQ ID NO: 40) (antisense eG*eG*e[5mC]*eA*eT*dA*dT*dT*dG*dG*dT*dT*dT*dT*dT*eG*eG*eA*eA*eT)”, for which the “kallikrein expression” value in the series on Kallikrein mRNA [1] was “significantly reduced”. In addition, the “Percent inhibition” value in the series with Kallikrein mRNA [1] turned out to be 78%. In addition, the “HMWK levels” value in series [2] is on record as “higher levels of HMWK”. Also, the “% inhibition” value is on record as 0% with mouse kallikrein mRNA (12.5 nM); 36% with mouse kallikrein mRNA (25.0 nM); 17% in the series with mouse kallikrein mRNA (50.0 nM); 60% in the series with mouse kallikrein mRNA (100.0 nM); 83% in the series on mouse kallikrein mRNA (200.0 nM). Further, the “Kallikrein mRNA inhibition” value in the series on Kallikrein mRNA [3] (160 mg/kg per week s.c.) is recorded as “greater than 90%”. In addition, the “Kallikrein mRNA and protein expression” value in the series on Kallikrein mRNA [3] (5.0-160 mg/kg per week s.c.) was “reduced in a dose dependent manner”. In the series with mice, the “vascular permeability induced by ISIS 461756” value is “prevented vascular permeability”.
